Source: US20140349943A1, “TOPICAL FORMULATIONS OF CHEMERIN C15 PEPTIDES FOR THE TREATMENT OF DERMATOLOGICAL CONDITIONS” (priority 2011, published 2014)
Several values for one entry are separate records, joined by “and”; a condition that tells them apart may be missing. Equal values may be shown once. Peptide text beside a SMILES is read from it.

Key:
[1] = Franz diffusion cell skin penetration, C15 ointment; format: in vitro ADME, human
Description: The objective of the study was to determine whether human chemerin C15 peptide would diffuse through in vitro human skin maintained under flow-through conditions in Franz cells where the C15 peptide is administered as an ointment. Human chemerin C15 peptide was prepared as an ointment as described in Example 4. A 10% solution of the C15 ointment was prepare immediately prior to skin application. […] human skin obtained from abdominoplasty was maintained in tissue media and antibiotics and used within 3 days.
A standard Franz diffusion cell (LGA, Berkeley, Calif.) was used under static conditions (n=3). Approximately 200 μl of the 10% ointment solution was transferred to the surface of the skin and distributed on the surface by spatula. A thin liner was then applied for light pressure to the skin surface for 5 min after which the diffusion cell was occluded and maintained for 24 hours. After this time, the ointment was recovered by scraping a spatula over the skin surface and transferring the retained material to a 50/50 water-chloroform solution. The epidermis and dermis were then separated by heat and the epidermis extracted with a 50/50 water-chloroform solution. The epidermis was then transferred to a second tube and homogenized in PBS containing 0.1% protease inhibitor. The dermis was minced and homogenized in PBS containing 0.1% protease inhibitor. The receptor fluid was recovered and concentrated under vacuum. Ointment without C15 was applied to skin and the skin sampled in the same manner as a control (n=2).
C15 recovery from the dosing material, epidermis, and receptor fluid was determined by HPLC. C15 concentration in the dermis was determine by LC/MS. The skin surface and epidermis recoveries and epidermis homogenate samples were analyzed using the following reversed phase HPLC conditions:
The dermis samples were analyzed using the following LC/MS/MS conditions: […]

[2] = system: K5.Stat3C recombinant mice; assay: K5.Stat3C mouse model of psoriasis (TPA induced lesions); format: in vivo; settings: expected
Description: In this example, the therapeutic activity of a human chemerin C15 peptide is tested in a mouse model of psoriasis. K5.Stat3C recombinant mice resemble human psoriasis based on clinical, histological, immunophenotypic, and biochemical criteria used to evaluate animal models of psoriasis. The K5.Stat3C mice constitutively express activated […] in keritinocytes and epidermal hyperplasia upon stimulation with 12-0-tetradecanoylphorbol-13-acetate (TPA) topical treatment.
In an exemplary protocol, mice are treated topically on the ear with TPA (e.g. 3.4 nmol TPA in acetone) or acetone control to induce skin lesions 3 times per week for 4-8 weeks. Real-time PCR in skin samples is used to confirm upregulation of cytokine expression, including IL-23, IL012, TNF-α, IL-β, and/or IL-6. Following induction of skin lesions, formulations comprising the human chemerin C15 peptide or vehicle control are applied topically to the skin lesions daily for 6-12 days. Improvement in the lesions is assessed daily.

[3] = ointment, 24 hours, listed as C15

SMILES: C[C@H](N)C(=O)NCC(=O)N[C@@H](CCC(=O)O)C(=O)N[C@@H](CC(=O)O)C(=O)N1CCC[C@H]1C(=O)N[C@@H](Cc1c[nH]cn1)C(=O)N[C@@H](CO)C(=O)N[C@@H](Cc1ccccc1)C(=O)N[C@@H](Cc1ccc(O)cc1)C(=O)N[C@@H](Cc1ccccc1)C(=O)N1CCC[C@H]1C(=O)NCC(=O)N[C@@H](CCC(N)=O)C(=O)N[C@@H](Cc1ccccc1)C(=O)N[C@@H](C)C(=O)O [C15 (human)] (H-AGEDPHSFYFPGQFA-OH; N-terminus and C-terminus assumed)
- [C15] in Receptor Fluid (5 mL) ([1]; Ointment, fresh human skin, after 24 hrs): <10 nM
- recovery at 24 h ([1]; female, human, ointment, 24 hours, mass balance, read-out: Total % recovery): 104%
- epidermis and dermis combined, share of the applied dose ([1]; ointment): < 1%
- Receptor fluid, C15 ([1]; ointment, 24 hours, HPLC LLQ 150 ng/ml): <LLQ
- Dermis homogenate, % of applied [1, 3]: 0.00% and 0.02% and 0.12%
- Epidermis, % of applied [1, 3]: 70.2% and 64.1% and 71.2%
- Epidermis, C15 [1, 3]: 1.53 mg and 2.25 mg and 1.45 mg
- Skin Surface, % of applied [1, 3]: 33.6% and 33.3% and 40.6%
- Skin Surface, C15 recovered [1, 3]: 0.74 mg and 1.17 mg and 0.83 mg
- Total % recovery ([1]; ointment, 24 hours, mass balance, listed as C15): 97.4% and 111.8%
- cytokine expression in the psoriatic lesions ([2]; topical daily for 6-12 days): decreased cytokine expression
- psoriatic phenotype of the epidermis ([2]; visual inspection and histological examination): improvement in the psoriatic phenotype of the epidermis
